# Reference: US20260199287A1, “LIPO-HYDROXAMIC ACID DERIVATIVE AND PHARMACEUTICAL USE THEREOF” (MediciBIO Co., Ltd, priority 2022, published 2026)
# How the values were obtained:
# [1] = test system: Nrf2; assay: Nrf2 protein expression in corneal tissue in vivo (Western blot); design: species or system rat; details: 0.1% and 0.3% eye drops; compared to control (0.02% benzalkonium)
# Method: (§1) To identify a mechanism of antioxidant activity of the lipo-hydroxamic acid derivative prepared above, Western blot was performed to detect protein expression of nuclear factor erythroid-2-related factor 2 (Nrf2; NCBI Gene ID: 4780) which is an antioxidant transcription factor. First, human corneal endothelial cells were cultured at 3×10^5 cells per well in a 6-well plate coated with FNC Coating Mix for 18 to 24 hours, and the samples were treated. Four hours after the sample treatment, the corneal dystrophy-like environment was induced in accordance with the method described in Example 3-2. […] Protein concentration in the supernatant was determined using a BCA kit (Thermo Fisher Scientific, MA, USA). […]
# To determine the effect of the sample on oxidative stress, animal experiments were conducted using Sprague-Dawley rats (purchased from Bio Link). […] To determine whether oxidative stress was induced, the H2O2 level, an indicator of oxidative stress, was measured in the anterior aqueous humor and corneal tissue using the Amplex Red Hydrogen Peroxide/Peroxidase assay kit (Invitrogen, MA, USA) according to the manufacturer's instructions. Afterwards, the animal model received 10 μL drops (single dose) of the sample (Sample 1) at a dose of 0.1% or 0.3% for 24 hours, including pretreatment, three times a day for 3 days, and then the H2O2 level in the anterior aqueous humor was measured. […]
# [2] = test system: cleaved caspase-3; assay: Western blot of cleaved caspase-3; assay type: cell-based, human; details: compared to the control group; environment induced 24 hours after sample treatment
# Method: as §1
# To identify the effect of the lipo-hydroxamic acid derivative prepared above on apoptosis in corneal endothelial cells, Western blot was performed to detect the protein expression of cleaved caspase-3 which is a major protease involved in apoptosis. […] The anti-cleaved caspase-3 antibody (Asp175; Cell Signaling Technology) was used as the primary antibody, and the cleaved caspase-3 expression was detected by a chemiluminescence image analysis system.
# [3] = test system: Smad3; assay: SMAD3 (pS423/pS425) ELISA; assay type: cell-based, human; details: compared to the control group (corneal dystrophy-like environment)
# Method: To identify the effect of the lipo-hydroxamic acid derivative prepared above on the expression of factors associated with fibrosis- and cellular degeneration-related factors in corneal endothelial cells, ELISA was performed to observe the activity of Smad3 protein. Analysis was carried out using SMAD3 (pS423/pS425) Human InstantOne ELISA kit (Thermo Fisher Scientific) according to the manufacturer's instructions. Human corneal endothelial cells were seeded in a 96-well plate at 2×10^4 cells per well, cultured for 24 hours, and then treated with the sample. Twenty-four hours after the sample treatment, the corneal dystrophy-like environment was induced in the same manner as in Example 3-2. Twenty-four hours after the induction, the cells were washed with PBS, lysed by adding 100 μL of lysis buffer mixture prepared by mixing the cell lysis reagent and buffer supplied in the kit. Subsequently, 50 μL of the cell lysate from each sample was added to the ELISA microplate wells. A 1:1 mixture of capture antibody and detection antibody, as provided in the kit, was prepared to form an antibody cocktail, and 50 μL of this mixture was added to each well. The plate was sealed and incubated at room temperature on a shaker at 300 rpm for 1 hour. […] The plate was then read using a microplate reader (Promega) at an absorbance of 450 nm.
# [4] = test system: Sprague-Dawley rats; assay: Antioxidant activity in vivo, H2O2 level after benzalkonium-induced corneal oxidative stress; design: species or system rat; details: 0.1% and 0.3% eye drops, 10 μL, three times a day for 3 days; compared to control (0.02% benzalkonium)
# Method: To determine the effect of the sample on oxidative stress, animal experiments were conducted using Sprague-Dawley rats (purchased from Bio Link). To induce oxidative stress in the cornea of an animal model, the anterior chamber of the right eye was punctured using a syringe equipped with a 30G needle, and then the needle was inserted into the corneal limbus to inject 0.02% benzalkonium (BAK), a known oxidative stress inducer. The ocular surface was subsequently rinsed with sterile saline. To determine whether oxidative stress was induced, the H2O2 level, an indicator of oxidative stress, was measured in the anterior aqueous humor and corneal tissue using the Amplex Red Hydrogen Peroxide/Peroxidase assay kit (Invitrogen, MA, USA) according to the manufacturer's instructions. Afterwards, the animal model received 10 μL drops (single dose) of the sample (Sample 1) at a dose of 0.1% or 0.3% for 24 hours, including pretreatment, three times a day for 3 days, and then the H2O2 level in the anterior aqueous humor was measured. Additionally, proteins were extracted from the harvested corneal tissue, and Western blot was performed in the same manner as in Example 5-1 to examine the expression of the Nrf2 protein. […]
structure (smiles),measurement,setting,value
"O=C(CCCCC1CCSS1)NOCCO (stereo not shown) [Sample 1, 5-[1,2]dithiolan-3-yl-pentanoic acid (2-hydroxy-ethoxy)-amide]",Nrf2 expression in corneal tissue,[1],significantly increased depending on the concentration of the sample
same,protein expression of cleaved caspase-3,[2],significantly decreased in a concentration-dependent manner
same,activity of the Smad3 protein,[3],significantly decreased
same,decrease of H2O2 in the anterior aqueous humor,[4],40-70%
